For 14 molecules, IC50 and Kd results are on record in patent publication US20130035326A1 (AMBIT BIOSCIENCES CORPORATION, priority 2009, published 2013).

One experiment relates to MV4-11 cells. Description: MV4-11 cell proliferation assay (Alamar Blue). Type of experiment: cell-based. The conditions noted are these: Homo sapiens, MV4-11, 72 h, 3 days incubation. The method, then:
The compounds disclosed herein were tested in an MV4-11 cell proliferation assay to determine their cellular potency against Flt3. MV4-11 cells carry ITD mutation within juxtamembrane domain of Flt3 kinase which renders the kinase constitutively active. […] This assay measures the potency of compounds as Flt3 inhibitors by measuring the reduction of Alamar Blue reagent by viable cells.
MV4-11 cells were grown in an incubator at 37° C. under 5% CO2 in Iscove's media (Celgro) with 10% FBS. The cell density was kept between 1e5 and 8e5 cells/mL.
On day one of the experiment, cells were harvested and spun at 500 g for 5 min at 4° C., the supernatant aspirated and the cells resuspended in Iscove's media with 0.5% FBS. Cell density was maintained at 7.5e5 to achieve maximum viability of the cells. The resuspended cells were incubated at 37° C. in 5% CO2 overnight.
On day two of the experiment, cells were diluted to 6.4e5/mL with Iscove's media with 0.5% FBS. 100 μL of the cell suspension (64,000 cells) were aliquoted into each well of a 96-well TC-treated plate. Compounds were added at 9 different concentrations, with half-log intervals alongside a control reference compound serving as a positive control. Final DMSO concentration was kept at 0.5% and final volume at 200 μL. The cells were then incubated at 37° C. under 5% CO2 for 3 days.
On day five of the experiment, 40 μL of Alamar Blue reagent was added to each well and the mixture was allowed to incubate for 3 hours. Alamar Blue fluorescence was measured using SoftMax Pro software at 560 nm (excitation) and 590 nm (emission). IC50s were generated as an average of duplicates and represents the concentration of test compound that achieves 50% inhibition of cellular proliferation compared to negative control.

The next experiment deals with T1, KIT kinase (Homo sapiens, UniProt P10721).
T1 construct: made in house; host or cells: T7 phage display or HEK-293 cells
T1 sequence (P10721 26-976): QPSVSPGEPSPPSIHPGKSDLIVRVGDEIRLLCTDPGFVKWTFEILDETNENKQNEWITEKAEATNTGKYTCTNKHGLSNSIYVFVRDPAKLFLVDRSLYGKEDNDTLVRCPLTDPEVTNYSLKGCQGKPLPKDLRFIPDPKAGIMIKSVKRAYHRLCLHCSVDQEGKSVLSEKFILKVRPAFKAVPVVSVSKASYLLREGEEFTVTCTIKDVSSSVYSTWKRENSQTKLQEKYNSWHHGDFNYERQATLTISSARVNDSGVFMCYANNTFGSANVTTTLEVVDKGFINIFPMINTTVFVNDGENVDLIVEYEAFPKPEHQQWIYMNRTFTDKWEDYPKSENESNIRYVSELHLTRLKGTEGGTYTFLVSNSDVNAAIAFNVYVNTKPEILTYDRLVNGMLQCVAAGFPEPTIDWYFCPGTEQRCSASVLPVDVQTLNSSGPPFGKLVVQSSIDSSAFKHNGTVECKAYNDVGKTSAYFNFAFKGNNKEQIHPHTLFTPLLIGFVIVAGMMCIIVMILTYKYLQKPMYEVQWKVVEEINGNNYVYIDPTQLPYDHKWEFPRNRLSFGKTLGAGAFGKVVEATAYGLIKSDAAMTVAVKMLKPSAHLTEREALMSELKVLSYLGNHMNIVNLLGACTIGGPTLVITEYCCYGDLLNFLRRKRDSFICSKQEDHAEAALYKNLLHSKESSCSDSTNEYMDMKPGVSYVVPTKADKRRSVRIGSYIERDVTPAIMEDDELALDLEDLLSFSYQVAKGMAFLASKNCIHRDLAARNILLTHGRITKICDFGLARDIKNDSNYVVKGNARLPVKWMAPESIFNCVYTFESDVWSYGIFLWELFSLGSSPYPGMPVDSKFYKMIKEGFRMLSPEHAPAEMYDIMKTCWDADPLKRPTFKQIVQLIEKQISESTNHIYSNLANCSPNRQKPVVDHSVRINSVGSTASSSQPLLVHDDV
Description: Competition binding assay, KIT Kd. The method, then: (§1) In certain embodiments, competition binding assays were performed as described in Fabian et al., Nature Biotechnology 2005, 23,329-336.
(§2) Competition binding assays used herein were developed, validated and performed as described in Fabian et al., Nature Biotechnology 2005, 23,329-336. Kinases were produced as fusions to T7 phage (See, Fabian et al. or WO04/015142) or alternatively, the kinases were expressed in HEK-293 cells and subsequently tagged with DNA for PCR detection (See, WO08/005,310). For the binding assays, streptavidin-coated magnetic beads were treated with biotinylated affinity ligands for 30 min at room temperature to generate affinity resins. The liganded beads were blocked with excess biotin and washed with blocking buffer (SeaBlock (Pierce), 1% BSA, 0.05% Tween 20, 1 mM DTT) to remove unbound ligand and to reduce non-specific binding. Binding reactions were assembled by combining kinase, liganded affinity beads, and test compounds in 1× binding buffer (20% SeaBlock, 0.17×PBS, 0.05% Tween 20, 6 mM DTT). Test compounds were prepared as 100× stocks in DMSO and diluted into the aqueous environment. Kds were determined using an eleven point threefold serial dilutions. DMSO or control compounds were was added to control assays lacking a test compound. Primary screen assays were performed in polypropylene 384-well plates in a final volume of 20-40 μL, while Kd determinations were performed in polystyrene 96-well plates in a final volume of 135 μL. The assay plates were incubated at room temperature with shaking for 1 hour to allow the binding reactions to reach equilibrium, and the affinity beads were washed extensively with wash buffer (1×PBS, 0.05% Tween 20) to remove unbound protein. The beads were then resuspended in elution buffer (1×PBS, 0.05% Tween 20, 0.5 μM non-biotinylated affinity ligand) and incubated at room temperature with shaking for 30 min. The kinase concentration in the eluates was measured by quantitative PCR.

In the next experiment the target is T2, FLT3 kinase (Homo sapiens, UniProt P36888).
T2 construct: made in house; host or cells: T7 phage display or HEK-293 cells
T2 sequence (P36888 27-993): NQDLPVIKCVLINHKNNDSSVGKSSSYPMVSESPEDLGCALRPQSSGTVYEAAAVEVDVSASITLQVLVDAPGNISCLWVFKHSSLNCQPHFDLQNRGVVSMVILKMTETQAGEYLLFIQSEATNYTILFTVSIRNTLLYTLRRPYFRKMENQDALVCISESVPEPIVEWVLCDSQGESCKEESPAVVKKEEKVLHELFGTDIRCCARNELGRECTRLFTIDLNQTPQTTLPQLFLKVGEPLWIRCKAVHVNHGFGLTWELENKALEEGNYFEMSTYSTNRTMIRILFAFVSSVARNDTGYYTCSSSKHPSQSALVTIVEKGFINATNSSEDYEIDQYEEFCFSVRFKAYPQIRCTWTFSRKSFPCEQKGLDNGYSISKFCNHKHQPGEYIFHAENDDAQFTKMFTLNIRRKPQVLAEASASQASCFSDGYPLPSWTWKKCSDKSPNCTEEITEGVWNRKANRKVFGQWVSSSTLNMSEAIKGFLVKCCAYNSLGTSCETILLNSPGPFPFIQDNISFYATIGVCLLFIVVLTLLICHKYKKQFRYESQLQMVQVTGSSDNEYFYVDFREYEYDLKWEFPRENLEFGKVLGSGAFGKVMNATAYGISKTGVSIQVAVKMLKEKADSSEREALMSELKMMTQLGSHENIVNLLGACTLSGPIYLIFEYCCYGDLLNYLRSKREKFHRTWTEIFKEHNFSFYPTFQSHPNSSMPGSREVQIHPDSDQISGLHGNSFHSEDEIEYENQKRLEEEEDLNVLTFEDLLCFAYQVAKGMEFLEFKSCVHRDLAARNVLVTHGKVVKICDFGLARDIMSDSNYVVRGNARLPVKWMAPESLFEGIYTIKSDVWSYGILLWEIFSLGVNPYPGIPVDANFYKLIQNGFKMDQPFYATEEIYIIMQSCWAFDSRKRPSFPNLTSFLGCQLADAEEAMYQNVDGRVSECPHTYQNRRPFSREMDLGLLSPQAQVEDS
Kind of experiment: Competition binding assay, FLT3 Kd. The method, then: as §1, §2

A further experiment addresses T3, CSF-1R kinase (Homo sapiens, UniProt P07333).
T3 construct: made in house; host or cells: T7 phage display or HEK-293 cells
Kind of experiment: Competition binding assay, CSF-1R Kd. How it is done: as §1, §2

pIC50, pKd: −log10 of the molar value.

T3 sequence (P07333 20-972): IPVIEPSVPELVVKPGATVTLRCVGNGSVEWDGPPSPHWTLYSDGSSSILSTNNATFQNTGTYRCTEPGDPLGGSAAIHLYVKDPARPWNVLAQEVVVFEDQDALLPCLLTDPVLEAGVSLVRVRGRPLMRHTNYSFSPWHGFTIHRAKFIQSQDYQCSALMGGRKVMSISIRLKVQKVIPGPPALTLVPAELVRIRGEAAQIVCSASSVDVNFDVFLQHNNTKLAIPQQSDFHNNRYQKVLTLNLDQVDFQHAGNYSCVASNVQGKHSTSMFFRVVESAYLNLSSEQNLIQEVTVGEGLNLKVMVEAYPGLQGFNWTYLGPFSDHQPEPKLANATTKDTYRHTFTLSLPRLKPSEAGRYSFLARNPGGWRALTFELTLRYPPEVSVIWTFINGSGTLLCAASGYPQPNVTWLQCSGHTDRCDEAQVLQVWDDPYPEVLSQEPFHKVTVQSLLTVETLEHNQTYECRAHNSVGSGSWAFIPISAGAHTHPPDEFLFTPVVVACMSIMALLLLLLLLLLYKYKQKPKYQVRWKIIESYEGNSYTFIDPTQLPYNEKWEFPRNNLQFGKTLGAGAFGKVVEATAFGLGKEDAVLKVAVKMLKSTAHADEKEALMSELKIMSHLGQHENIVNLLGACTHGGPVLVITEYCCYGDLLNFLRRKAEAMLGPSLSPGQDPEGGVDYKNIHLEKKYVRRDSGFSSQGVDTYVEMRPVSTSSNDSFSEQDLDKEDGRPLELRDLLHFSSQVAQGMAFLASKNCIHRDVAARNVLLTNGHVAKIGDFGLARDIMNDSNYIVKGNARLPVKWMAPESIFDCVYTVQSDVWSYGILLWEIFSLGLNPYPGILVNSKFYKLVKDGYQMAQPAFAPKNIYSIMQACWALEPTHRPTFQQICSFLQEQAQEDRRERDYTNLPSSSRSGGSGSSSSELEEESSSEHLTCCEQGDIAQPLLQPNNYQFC

`CC(C)(CO)c1cc(NC(=O)Nc2ccc(-c3ccc(N)nc3)cc2)on1` [Example 81, 5-(4-(3-(3-(1-hydroxy-2-methylpropan-2-yl)isoxazol-5-yl)ureido)phenyl)pyridin-2-aminium methanesulfonate]: in the experiment on MV4-11 cells, the negative logarithm of the IC50 (pIC50) was 7.00 to 8.00. In addition, the pKd on KIT kinase was 8.00 to 9.00; on FLT3 kinase, 8.00 to 9.00; on CSF-1R kinase, not below 8.00.
On to `Cn1nc(C(C)(C)CO)cc1NC(=O)Nc1ccc(-c2ccc(N)nc2)cc1` [Example 82, 5-(4-(3-(3-(1-hydroxy-2-methylpropan-2-yl)-1-methyl-1H-pyrazol-5-yl)ureido)phenyl)pyridin-2-aminium methanesulfonate], for which, in the experiment with MV4-11 cells, the negative logarithm of the IC50 (pIC50) was 6.30 to 7.00. The figures for the pKd at KIT kinase, on FLT3 kinase and at CSF-1R kinase were 8.00 to 9.00, 8.00 to 9.00 and 7.00 to 8.00, respectively.
In the experiment with MV4-11 cells, `CC(C)(CO)c1cc(NC(=O)Cc2ccc(-c3ccc(N)nc3)cc2)on1` [Example 83, 5-(4-(2-((3-(1-hydroxy-2-methylpropan-2-yl)isoxazol-5-yl)amino)-2-oxoethyl)phenyl)pyridin-2-aminium methanesulfonate] showed a negative-log IC50 (pIC50) of 7.00 to 8.00. Also, the pKd was 8.00 to 9.00 at KIT kinase, not below 9.00 on FLT3 kinase and not below 8.00 at CSF-1R kinase.
Taken in the same sequence, the figures for `CC(C)(C)c1cc(NC(=O)Cc2ccc(-c3ccc(N)nc3)cc2)on1` [Example 84, 5-(4-(2-(3-tert-butylisoxazol-5-ylamino)-2-oxoethyl)phenyl)pyridin-2-aminium methanesulfonate] were not below 9.00, 8.00 to 9.00, not below 9.00 and not below 8.00.
`Cc1cc(-c2ccc(CC(=O)Nc3cc(C(C)(C)C)on3)cc2)cnc1N` [Example 85, 5-(4-(2-(5-tert-butylisoxazol-3-ylamino)-2-oxoethyl)phenyl)-3-methylpyridin-2-aminium methanesulfonate] gave a pIC50 in the experiment with MV4-11 cells not below 9.00. In addition, the values for the pKd on KIT kinase, on FLT3 kinase and at CSF-1R kinase were 8.00 to 9.00, not below 9.00 and not below 8.00, respectively.
Take `Cc1cc(N)ncc1-c1ccc(CC(=O)Nc2cc(C(C)(C)C)on2)cc1` [Example 86, 5-(4-(2-(5-tert-butylisoxazol-3-ylamino)-2-oxoethyl)phenyl)-4-methylpyridin-2-aminium methanesulfonate]: the pIC50 in the experiment with MV4-11 cells was 7.00 to 8.00. The pKd was 8.00 to 9.00 on KIT kinase, not below 9.00 at FLT3 kinase and 7.00 to 8.00 on CSF-1R kinase.
Regarding `Cc1nc(N)ccc1-c1ccc(CC(=O)Nc2cc(C(C)(C)C)on2)cc1` [Example 87, 5-(4-(2-(5-tert-butylisoxazol-3-ylamino)-2-oxoethyl)phenyl)-6-methylpyridin-2-aminium methanesulfonate], in the experiment with MV4-11 cells, the pIC50 was 7.00 to 8.00. For the same molecule, the values for the pKd at KIT kinase, at FLT3 kinase and at CSF-1R kinase were 8.00 to 9.00, not below 9.00 and 7.00 to 8.00, respectively.
In the case of `CC(C)(CO)c1cc(NC(=O)Cc2ccc(-c3ccc(N)nc3)cc2)no1` [Example 88, 5-(4-(2-(5-(1-hydroxy-2-methylpropan-2-yl)isoxazol-3-ylamino)-2-oxoethyl)phenyl)pyridin-2-aminium methanesulfonate], in the experiment with MV4-11 cells, the negative logarithm of the IC50 (pIC50) was 8.00 to 9.00. Besides, the negative-log Kd (pKd) at KIT kinase was 8.00 to 9.00; at FLT3 kinase it was not below 9.00; at CSF-1R kinase it was 7.00 to 8.00.
For the molecule `COCCNc1ccc(-c2ccc(CC(=O)Nc3cc(C(C)(C)C)on3)cc2)cn1` [Example 89, 5-(4-(2-(5-tert-butylisoxazol-3-ylamino)-2-oxoethyl)phenyl)-N-(2-methoxyethyl)pyridin-2-aminium methanesulfonate], the pIC50 in the experiment on MV4-11 cells was 8.00 to 9.00. The negative logarithm of the Kd (pKd) at KIT kinase is 8.00 to 9.00; at FLT3 kinase it was not below 9.00; on CSF-1R kinase, not below 8.00.
In the experiment with MV4-11 cells, `Cn1nc(C(C)(C)CF)cc1NC(=O)Nc1ccc(-c2ccc(N)nc2)cc1` [Example 90, 5-(4-(3-(3-(1-fluoro-2-methylpropan-2-yl)-1-methyl-1H-pyrazol-5-yl)ureido)phenyl)pyridin-2-aminium acetate] showed a pIC50 of 6.30 to 7.00. The figures for the pKd at KIT kinase, on FLT3 kinase and on CSF-1R kinase were 8.00 to 9.00, 8.00 to 9.00 and 7.00 to 8.00, respectively.
In the experiment with MV4-11 cells, `CC(C)(C)c1cc(NC(=O)Cc2ccc(-c3cnc(N)c(C#N)c3)cc2)no1` [Example 93, 5-(4-(2-(5-tert-butylisoxazol-3-ylamino)-2-oxoethyl)phenyl)-3-cyanopyridin-2-aminium methanesulfonate] gave a pIC50 not below 9.00. The pKd is 8.00 to 9.00 at KIT kinase, 8.00 to 9.00 on FLT3 kinase and not below 8.00 at CSF-1R kinase.
In turn, `CC(C)(C)c1cc(NC(=O)Cc2ccc(-c3cnc(N)c(C(N)=O)n3)cc2)no1` [Example 114, 5-(4-(2-(5-tert-butylisoxazol-3-ylamino)-2-oxoethyl)phenyl)-3-carbamoylpyrazin-2-aminium methanesulfonate] had a pIC50 with MV4-11 cells not below 9.00. Moreover, the negative-log Kd (pKd) is not below 9.00 at KIT kinase, not below 9.00 on FLT3 kinase and not below 8.00 at CSF-1R kinase.
Consider `CC(C)(C)c1cc(NC(=O)Cc2ccc(-c3cnc4c(c3)CCCN4)cc2)no1` [Example 120, 6-(4-(2-((5-(tert-butyl)isoxazol-3-yl)amino)-2-oxoethyl)phenyl)-1,2,3,4-tetrahydro-1,8-naphthyridin-1-ium methanesulfonate], for which, in the experiment with MV4-11 cells, the negative logarithm of the IC50 (pIC50) was 8.00 to 9.00. Besides, the pKd at KIT kinase is 8.00 to 9.00; at FLT3 kinase, not below 9.00; on CSF-1R kinase, not below 8.00.
`CS(=O)(=O)O.Nc1ncc(-c2ccc(CC(=O)Nc3cc(C4(C(F)(F)F)CC4)on3)cc2)cc1F` [Example 127, 3-fluoro-5-(4-(2-oxo-2-(5-(1-(trifluoromethybcyclopropybisoxazol-3-ylamino)ethyl)phenyl)pyridin-2-aminium methanesulfonate]: the pIC50 in the experiment with MV4-11 cells was not below 9.00. In addition, the pKd was 8.00 to 9.00 at KIT kinase, not below 9.00 on FLT3 kinase and not below 8.00 at CSF-1R kinase.
